Experimental data as given in US8415469B2, “Compounds and methods for kinase modulation, and indications therefor” (Plexxikon Inc., priority 2005, dated 2013).

Tests used:
Format in all cases: biochemical
B-Raf = biological target: T1, B-Raf (Homo sapiens, UniProt P15056); test: AlphaScreen kinase assay, B-Raf; details: read-out: IC50, activity toward kinase B-Raf
T1 construct: purchased Upstate Biotechnology

B-Raf V600E = biological target: T2, B-Raf V600E (Homo sapiens, UniProt P15056, V600E); test: AlphaScreen kinase assay, B-Raf V600E; details: read-out: IC50, activity toward kinase B-Raf V600E
T2 construct: P4254. pFastBacBD-CDC37 BRAF D437-K722-X, V600E; His6 with pFastBac HT leader (TEV site) (N); made in house; host or cells: Sf9 (baculovirus; chaperone CDC37 co-expressed)

Btk = biological target: T3, Btk (Homo sapiens, UniProt Q06187); test: Z'-Lyte FRET kinase assay (Invitrogen), Btk; details: read-out: IC50, activity toward kinase Btk
T3 construct: purchased Invitrogen (assay run by Invitrogen)

c-Raf-1 = biological target: T4, c-Raf-1 (Homo sapiens, UniProt P04049); test: AlphaScreen kinase assay, c-Raf-1; details: read-out: IC50, activity toward kinase c-Raf-1
T4 construct: purchased Upstate Biotechnology

FGFR1 = biological target: T5, FGFR1 (Homo sapiens, UniProt P11362, C488A/C584S); test: AlphaScreen kinase assay, FGFR1; details: read-out: IC50, activity toward kinase FGFR
T5 construct: P1351.pET N6 BI-PTP FGFR A458-E765-X C488A, C584S; made in house; host or cells: E. coli (PTP1B co-expressed)

Fms = biological target: T6, Fms (Homo sapiens, UniProt P07333); test: AlphaScreen kinase assay, Fms; details: read-out: IC50, activity toward kinase Fms
T6 construct: purchased Upstate Biotechnology

Jnk1 = biological target: T7, Jnk1 (Homo sapiens, UniProt P45983); test: AlphaScreen kinase assay, Jnk1; details: read-out: IC50, activity toward kinase Jnk1
T7 construct: purchased Upstate Biotechnology

Jnk3 = biological target: T8, Jnk3 (Homo sapiens, UniProt P53779); test: AlphaScreen kinase assay, Jnk3; details: read-out: IC50, activity toward kinase Jnk3
T8 construct: purchased Upstate Biotechnology

Kit = biological target: T9, Kit (Homo sapiens, UniProt P10721); test: AlphaScreen kinase assay, Kit; details: read-out: IC50, activity toward kinase Kit
T9 construct: P1332.N6 BI PTP KIT M552-K948-X COD; His6 (N); made in house; host or cells: E. coli (PTP1B co-expressed)

Met = biological target: T10, Met (Homo sapiens, UniProt P08581); test: AlphaScreen kinase assay, Met; details: read-out: IC50, activity toward kinase Met
T10 construct: P1818.pETN6 BI-PTP MET G1056-G1364-X WT; His6 (N); made in house; host or cells: E. coli (PTP1B co-expressed)
Procedure, shortened: (§1)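 Compounds in DMSO (20 mM stock) were diluted 1:3 across 8 points. Each kinase phosphorylated a biotin-labelled peptide. Signal generated when donor and acceptor beads came close via antibody binding of phosphorylated substrate.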

Ret = biological target: T11, Ret (Homo sapiens, UniProt P07949); test: AlphaScreen kinase assay, Ret; details: read-out: IC50, activity toward kinase Ret
T11 construct: P1378.pET-SF BI-PTP RET H661-R1012 HIS; made in house
T11 sequence (P07949 with tags, fused parts or gaps): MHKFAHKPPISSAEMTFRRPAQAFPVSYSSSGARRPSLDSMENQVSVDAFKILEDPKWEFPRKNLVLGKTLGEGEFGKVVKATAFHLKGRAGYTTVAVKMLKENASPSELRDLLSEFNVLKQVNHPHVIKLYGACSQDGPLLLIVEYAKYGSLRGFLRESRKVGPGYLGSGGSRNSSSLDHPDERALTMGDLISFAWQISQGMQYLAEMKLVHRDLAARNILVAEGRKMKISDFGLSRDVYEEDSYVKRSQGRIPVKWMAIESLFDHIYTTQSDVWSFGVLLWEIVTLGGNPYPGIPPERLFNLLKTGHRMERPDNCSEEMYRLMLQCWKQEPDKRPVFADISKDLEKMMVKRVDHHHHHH

Src = biological target: T12, Src (Homo sapiens, UniProt P12931); test: AlphaScreen kinase assay, Src; details: read-out: IC50, activity toward kinase Src
T12 construct: P1144. pET-N6 BI-PTP SRC V86-L536-X; made in house

Gsk3β = Gsk3β (Homo sapiens, UniProt P49841); test: AlphaScreen kinase assay, Gsk3β; details: read-out: IC50, activity toward kinase Gsk3β
Source text: AlphaScreen assay was used to screen additional kinases. The assay is similarly dependent on the phosphorylation of a peptide substrate. In this assay, an antibody that recognizes phosphorylated substrate is bound to an acceptor bead. The peptide substrate is attached to biotin, which binds to a donor head that contains streptavidin. Thus phosphorylated substrate is bound by antibody and streptavidin, bringing the donor and acceptor heads into close proximity when kinase is not inhibited. The donor produces singlet oxygen which results in emission from the acceptor when they are in close proximity. Conversely, when kinase is inhibited, the donor and acceptor beads are not associated and the emission from the acceptor is reduced.
AlphaScreen assays were done using compounds dissolved in DMSO to a concentration of 20 mM. The compounds were diluted accordingly to the desired final concentrations in each sample well, using 1:3 serial dilution for a total of 8 concentration points.

EphB2 = biological target: T13, EphB2 (Homo sapiens, UniProt P29323); test: Z'-Lyte FRET kinase assay (Invitrogen), EphB2; details: read-out: IC50, activity toward kinase EphB2
T13 construct: purchased Invitrogen (assay run by Invitrogen)
T13 sequence (P29323 19-1055): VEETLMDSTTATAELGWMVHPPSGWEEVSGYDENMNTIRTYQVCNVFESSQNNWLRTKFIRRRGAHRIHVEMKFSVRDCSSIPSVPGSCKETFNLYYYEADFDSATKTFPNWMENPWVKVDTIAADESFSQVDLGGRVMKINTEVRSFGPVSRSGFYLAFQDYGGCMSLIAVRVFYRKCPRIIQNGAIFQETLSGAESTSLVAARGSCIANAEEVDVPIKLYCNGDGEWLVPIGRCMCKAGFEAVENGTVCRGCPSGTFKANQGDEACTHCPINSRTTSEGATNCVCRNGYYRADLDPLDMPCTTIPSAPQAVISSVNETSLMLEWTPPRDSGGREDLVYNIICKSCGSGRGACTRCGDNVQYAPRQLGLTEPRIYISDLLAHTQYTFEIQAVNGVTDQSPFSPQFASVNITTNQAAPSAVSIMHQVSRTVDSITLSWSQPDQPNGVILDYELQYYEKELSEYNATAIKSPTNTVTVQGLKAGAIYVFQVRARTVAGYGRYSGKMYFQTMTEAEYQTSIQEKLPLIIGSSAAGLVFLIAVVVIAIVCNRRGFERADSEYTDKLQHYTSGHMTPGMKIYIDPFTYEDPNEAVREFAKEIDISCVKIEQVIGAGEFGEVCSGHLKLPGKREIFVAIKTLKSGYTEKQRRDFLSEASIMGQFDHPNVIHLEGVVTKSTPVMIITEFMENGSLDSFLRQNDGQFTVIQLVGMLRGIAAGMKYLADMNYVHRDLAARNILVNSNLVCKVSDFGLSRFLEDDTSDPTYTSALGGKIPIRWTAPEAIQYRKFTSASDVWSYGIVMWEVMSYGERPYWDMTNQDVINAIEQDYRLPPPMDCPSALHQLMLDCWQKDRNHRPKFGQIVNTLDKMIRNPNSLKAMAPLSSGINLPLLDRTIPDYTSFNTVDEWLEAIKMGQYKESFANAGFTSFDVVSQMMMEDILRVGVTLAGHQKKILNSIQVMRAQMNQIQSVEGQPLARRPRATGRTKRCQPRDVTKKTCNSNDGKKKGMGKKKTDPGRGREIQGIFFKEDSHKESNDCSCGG
Source text: The effect of potential modulators of kinase activity can be measured in a variety of different assays known in the art. For example, direct radiometric, indirect FRET or AlphaScreen assays may be used to assess the level of phosphorylation of a substrate in the presence of test compounds in order to determine the inhibitory affect of the compound on the kinase. Invitrogen (Carlsbad, Calif.) uses a FRET based assay for Btk, EGFR, EphB2, Flt3, lrak4, Kdr, MAP2K1, MAPKAPK2, PDGFRB, PKC theta, Stk6 and Yes. For these assays, compounds of the invention were screened by Invitrogen using Z′-Lyte™ kinase assay.
Briefly, the Invitrogen kinase assay involves use of a specific peptide substrate optimized for each kinase, containing a fluorophore at each end that make up the FRET pair. The peptide sensitivity to proteolytic cleavage depends on phosphorylation of the peptide. Non-phosphorylated peptide is cleaved by a protease while peptide phosphorylated by the kinase is not cleaved. Cleavage of the peptide disrupts the FRET between the donor (coumarin) and acceptor (fluorescein) fluorophores, resulting in an increase in the ratio of donor emission to acceptor emission. The emission ratio of coumarin to fluorescein is used to assess the reaction progress. The extent of phosphorylation is determined from the emission ratio, which is low when the kinase is active (phosphorylated peptide is not cleaved, FRET pair connected) or higher for inhibited kinase (non-phosphorylated peptide is cleaved, FRET pair separated). Thus, the assay involves a kinase reaction in the presence of varying concentrations of a given compound, a development reaction with site specific protease, and detection of the fluorescent emission ratio of coumarin and fluorscein. […] Reaction conditions for each kinase are determined to provide optimal reaction times, incubation temperature, kinase and ATP concentrations. Test samples are made up in 1× kinase buffer (50 mM HEPES pH 7.5, 50 mM MgCl2, 5 mM EGTA, 0.05% BRIJ-35) and compound at desired concentration prepared in DMSO such that the final DMSO is 1%. […] Typically, assay plates are prepared to 10 μl final volume per sample, adding 2.5 μl of compound at 4× the desired concentration in 4% DMSO (serial dilution of compound provides concentration curve), 5 μl of the desired kinase mixed with Z′-LYTE™ peptide substrate (2× in 2× kinase buffer, final peptide at 2 μM), and 2.5 μl of 4×ATP solution. All kinase except for MAP2K1 were at 10 μM ATP in the kinase reaction, while MAP2K1 was at 100 μM. Samples are mixed and the kinase reaction is incubated 1 hour at room temperature, after which 5 μl of development solution is added and mixed. After incubation for another 1 hour at room temperature, 5 μl of stop reagent is added to each sample and mixed. The fluorescence signals are measured to determine the emission ratio.

Kdr = biological target: T14, Kdr (Homo sapiens, UniProt P35968); test: Z'-Lyte FRET kinase assay (Invitrogen), Kdr; details: read-out: IC50, activity toward kinase Kdr
T14 construct: purchased Invitrogen (assay run by Invitrogen)

Yes = biological target: T15, Yes (Homo sapiens, UniProt P07947); test: Z'-Lyte FRET kinase assay (Invitrogen), Yes; details: read-out: IC50, activity toward kinase Yes
T15 construct: purchased Invitrogen (Carlsbad, Calif.), screening service
Procedure, shortened: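 Serially diluted compound (1% DMSO final) is mixed with kinase plus 2 μM peptide substrate in pH 7.5 HEPES buffer, then ATP is added to 10 μM. After 1 h at room temperature, site-specific protease is added for another hour, reactions are stopped and fluorescence ratio measured.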

Abl = biological target: T16, Abl (Homo sapiens, UniProt P00519); test: AlphaScreen kinase assay, Abl; details: read-out: activity toward kinase Abl, IC50
T16 construct: P1121. pET-SPEC BI-PTP Abl G227-V515-X; His6 (N); made in house; host or cells: E. coli (PTP1B co-expressed)
T16 sequence (P00519 with tags, fused parts or gaps): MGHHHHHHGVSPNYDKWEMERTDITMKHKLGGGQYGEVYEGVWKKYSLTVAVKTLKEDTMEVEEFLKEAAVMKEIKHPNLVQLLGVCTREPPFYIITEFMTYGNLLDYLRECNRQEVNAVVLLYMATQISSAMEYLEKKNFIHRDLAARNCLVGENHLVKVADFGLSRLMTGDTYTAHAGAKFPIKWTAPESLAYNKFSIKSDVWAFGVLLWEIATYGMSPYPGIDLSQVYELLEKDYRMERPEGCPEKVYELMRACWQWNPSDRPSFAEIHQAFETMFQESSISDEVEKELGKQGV
Procedure, shortened: as §1

Stk6 = biological target: T17, Stk6 (Homo sapiens, UniProt O14965); test: Z'-Lyte FRET kinase assay (Invitrogen), Stk6; details: read-out: IC50, activity toward kinase Stk6
T17 construct: purchased Invitrogen (Carlsbad, Calif.), screening service
T17 sequence (O14965 1-403): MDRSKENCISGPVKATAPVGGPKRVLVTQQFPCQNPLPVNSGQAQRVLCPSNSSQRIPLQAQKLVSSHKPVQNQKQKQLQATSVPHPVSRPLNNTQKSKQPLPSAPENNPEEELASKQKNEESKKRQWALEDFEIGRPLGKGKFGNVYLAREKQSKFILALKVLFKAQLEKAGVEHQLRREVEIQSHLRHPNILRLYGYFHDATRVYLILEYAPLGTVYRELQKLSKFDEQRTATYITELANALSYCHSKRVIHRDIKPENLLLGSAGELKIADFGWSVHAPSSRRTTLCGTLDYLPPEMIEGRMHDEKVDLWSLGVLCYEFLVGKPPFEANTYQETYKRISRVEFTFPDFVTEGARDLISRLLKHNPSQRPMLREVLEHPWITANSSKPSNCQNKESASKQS

Measured: IC50

Gsk3β, sequence (P49841 whole entry): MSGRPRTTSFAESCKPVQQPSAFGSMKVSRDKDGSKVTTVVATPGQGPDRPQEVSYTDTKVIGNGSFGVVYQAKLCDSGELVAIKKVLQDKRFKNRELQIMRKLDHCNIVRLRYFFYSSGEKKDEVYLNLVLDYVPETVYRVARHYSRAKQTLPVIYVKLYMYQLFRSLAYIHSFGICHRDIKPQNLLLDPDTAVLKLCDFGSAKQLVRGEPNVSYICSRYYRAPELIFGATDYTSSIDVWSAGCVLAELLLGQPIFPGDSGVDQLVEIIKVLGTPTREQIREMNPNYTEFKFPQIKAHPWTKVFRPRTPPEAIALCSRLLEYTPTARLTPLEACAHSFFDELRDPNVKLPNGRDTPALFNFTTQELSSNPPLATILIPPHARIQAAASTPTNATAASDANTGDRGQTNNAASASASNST
T14 sequence (P35968 20-1356): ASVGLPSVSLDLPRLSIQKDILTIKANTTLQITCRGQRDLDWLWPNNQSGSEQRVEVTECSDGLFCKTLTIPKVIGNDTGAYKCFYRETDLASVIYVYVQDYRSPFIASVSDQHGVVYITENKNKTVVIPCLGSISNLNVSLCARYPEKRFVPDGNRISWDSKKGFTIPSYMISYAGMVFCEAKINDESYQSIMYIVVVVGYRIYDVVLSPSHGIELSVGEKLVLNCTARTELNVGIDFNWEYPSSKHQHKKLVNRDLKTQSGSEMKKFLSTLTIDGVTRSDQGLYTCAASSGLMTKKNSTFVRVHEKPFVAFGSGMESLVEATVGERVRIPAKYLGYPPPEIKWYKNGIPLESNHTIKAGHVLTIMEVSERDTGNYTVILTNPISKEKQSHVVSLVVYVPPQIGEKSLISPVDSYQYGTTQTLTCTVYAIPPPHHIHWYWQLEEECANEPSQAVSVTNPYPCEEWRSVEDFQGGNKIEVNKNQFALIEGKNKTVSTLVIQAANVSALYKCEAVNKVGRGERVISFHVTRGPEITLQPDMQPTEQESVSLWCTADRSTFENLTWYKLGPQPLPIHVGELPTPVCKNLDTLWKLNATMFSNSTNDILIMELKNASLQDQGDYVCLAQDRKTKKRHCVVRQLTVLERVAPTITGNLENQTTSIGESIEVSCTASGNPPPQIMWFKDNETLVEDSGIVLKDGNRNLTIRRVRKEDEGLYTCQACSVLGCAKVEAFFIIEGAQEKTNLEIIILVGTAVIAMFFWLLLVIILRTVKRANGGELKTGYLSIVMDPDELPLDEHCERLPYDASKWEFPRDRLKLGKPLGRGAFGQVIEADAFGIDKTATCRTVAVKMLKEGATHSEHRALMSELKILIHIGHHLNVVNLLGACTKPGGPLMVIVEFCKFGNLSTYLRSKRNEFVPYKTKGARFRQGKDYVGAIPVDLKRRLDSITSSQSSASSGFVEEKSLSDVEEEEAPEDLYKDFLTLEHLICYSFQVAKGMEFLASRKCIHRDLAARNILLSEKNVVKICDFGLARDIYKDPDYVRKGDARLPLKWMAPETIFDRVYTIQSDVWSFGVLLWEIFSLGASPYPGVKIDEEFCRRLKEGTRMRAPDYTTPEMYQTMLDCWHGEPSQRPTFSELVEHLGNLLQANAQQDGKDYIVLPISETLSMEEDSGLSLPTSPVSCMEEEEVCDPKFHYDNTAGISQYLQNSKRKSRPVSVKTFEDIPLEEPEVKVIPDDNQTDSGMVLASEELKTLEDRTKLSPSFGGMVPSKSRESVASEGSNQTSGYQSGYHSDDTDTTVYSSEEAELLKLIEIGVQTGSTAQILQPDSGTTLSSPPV
T3 sequence (Q06187 whole entry): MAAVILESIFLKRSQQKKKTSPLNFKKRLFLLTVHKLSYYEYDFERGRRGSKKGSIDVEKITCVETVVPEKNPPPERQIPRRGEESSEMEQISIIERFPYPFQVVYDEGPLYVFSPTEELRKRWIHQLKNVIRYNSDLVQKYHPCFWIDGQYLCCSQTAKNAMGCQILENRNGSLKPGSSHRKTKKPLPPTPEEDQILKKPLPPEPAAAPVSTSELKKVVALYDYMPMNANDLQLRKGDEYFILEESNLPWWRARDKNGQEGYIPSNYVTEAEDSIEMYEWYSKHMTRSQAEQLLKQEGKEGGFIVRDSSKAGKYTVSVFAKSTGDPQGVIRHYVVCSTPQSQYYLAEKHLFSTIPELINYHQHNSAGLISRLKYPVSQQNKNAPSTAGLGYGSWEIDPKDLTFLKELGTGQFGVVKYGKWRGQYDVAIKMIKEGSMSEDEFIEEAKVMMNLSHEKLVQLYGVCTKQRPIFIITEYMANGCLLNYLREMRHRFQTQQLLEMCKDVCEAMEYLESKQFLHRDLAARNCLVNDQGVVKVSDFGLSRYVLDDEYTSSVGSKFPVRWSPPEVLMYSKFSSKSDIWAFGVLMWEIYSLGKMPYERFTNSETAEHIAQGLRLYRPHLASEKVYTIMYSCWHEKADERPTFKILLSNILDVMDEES
T2 sequence (P15056 with tags, fused parts or gaps V600E): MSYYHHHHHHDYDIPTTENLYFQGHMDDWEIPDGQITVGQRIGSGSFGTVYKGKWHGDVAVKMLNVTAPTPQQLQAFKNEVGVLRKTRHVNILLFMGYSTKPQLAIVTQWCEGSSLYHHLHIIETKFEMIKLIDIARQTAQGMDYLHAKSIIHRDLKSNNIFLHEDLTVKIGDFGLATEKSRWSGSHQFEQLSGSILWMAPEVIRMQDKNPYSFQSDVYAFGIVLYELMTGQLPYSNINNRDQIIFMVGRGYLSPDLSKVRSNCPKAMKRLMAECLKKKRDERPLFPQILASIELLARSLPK
T10 sequence (P08581 with tags, fused parts or gaps): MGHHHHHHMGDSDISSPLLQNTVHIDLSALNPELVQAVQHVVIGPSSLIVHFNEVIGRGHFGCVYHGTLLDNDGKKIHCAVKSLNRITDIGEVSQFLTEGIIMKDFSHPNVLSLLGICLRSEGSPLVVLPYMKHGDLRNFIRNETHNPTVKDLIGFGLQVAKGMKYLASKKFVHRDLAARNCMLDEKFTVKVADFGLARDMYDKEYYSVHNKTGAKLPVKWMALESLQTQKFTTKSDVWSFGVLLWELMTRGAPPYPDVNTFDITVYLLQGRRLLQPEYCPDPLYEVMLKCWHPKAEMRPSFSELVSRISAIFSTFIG
T5 sequence (P11362 458-765 C488A/C584S): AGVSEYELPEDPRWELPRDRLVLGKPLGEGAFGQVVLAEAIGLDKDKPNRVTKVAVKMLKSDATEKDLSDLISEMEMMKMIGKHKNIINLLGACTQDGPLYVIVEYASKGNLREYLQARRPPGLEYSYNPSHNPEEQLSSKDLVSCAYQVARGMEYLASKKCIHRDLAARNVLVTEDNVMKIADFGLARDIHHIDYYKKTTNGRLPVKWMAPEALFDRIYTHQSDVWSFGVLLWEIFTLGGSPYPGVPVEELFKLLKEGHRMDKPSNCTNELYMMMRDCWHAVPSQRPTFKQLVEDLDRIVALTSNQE
T15 sequence (P07947 whole entry): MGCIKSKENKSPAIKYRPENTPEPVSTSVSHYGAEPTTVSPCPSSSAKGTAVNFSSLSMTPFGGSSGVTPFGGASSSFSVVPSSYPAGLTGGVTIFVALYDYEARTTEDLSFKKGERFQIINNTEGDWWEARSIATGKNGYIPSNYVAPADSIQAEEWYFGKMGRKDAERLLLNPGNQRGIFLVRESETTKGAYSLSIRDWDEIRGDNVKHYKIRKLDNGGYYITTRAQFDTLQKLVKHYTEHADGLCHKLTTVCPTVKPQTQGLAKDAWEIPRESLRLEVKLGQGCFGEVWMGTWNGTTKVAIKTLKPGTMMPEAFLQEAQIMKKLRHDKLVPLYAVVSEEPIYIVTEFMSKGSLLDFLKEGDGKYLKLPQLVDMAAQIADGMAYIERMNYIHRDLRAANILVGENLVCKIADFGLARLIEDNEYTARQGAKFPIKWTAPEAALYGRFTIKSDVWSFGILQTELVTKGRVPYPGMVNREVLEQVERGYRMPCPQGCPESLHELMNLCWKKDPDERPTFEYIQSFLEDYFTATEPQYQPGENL
T7 sequence (P45983 whole entry): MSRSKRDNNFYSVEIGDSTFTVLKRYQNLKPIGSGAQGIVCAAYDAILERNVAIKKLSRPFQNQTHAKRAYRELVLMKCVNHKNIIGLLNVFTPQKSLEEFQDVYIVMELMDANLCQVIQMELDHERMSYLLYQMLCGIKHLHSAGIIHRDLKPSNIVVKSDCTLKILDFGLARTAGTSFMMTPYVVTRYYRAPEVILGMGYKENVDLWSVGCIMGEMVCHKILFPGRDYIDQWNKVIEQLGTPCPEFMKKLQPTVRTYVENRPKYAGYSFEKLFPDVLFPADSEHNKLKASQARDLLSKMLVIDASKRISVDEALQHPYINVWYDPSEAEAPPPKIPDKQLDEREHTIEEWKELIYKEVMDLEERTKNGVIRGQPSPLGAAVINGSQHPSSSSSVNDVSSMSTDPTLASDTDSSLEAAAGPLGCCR
T8 sequence (P53779 whole entry): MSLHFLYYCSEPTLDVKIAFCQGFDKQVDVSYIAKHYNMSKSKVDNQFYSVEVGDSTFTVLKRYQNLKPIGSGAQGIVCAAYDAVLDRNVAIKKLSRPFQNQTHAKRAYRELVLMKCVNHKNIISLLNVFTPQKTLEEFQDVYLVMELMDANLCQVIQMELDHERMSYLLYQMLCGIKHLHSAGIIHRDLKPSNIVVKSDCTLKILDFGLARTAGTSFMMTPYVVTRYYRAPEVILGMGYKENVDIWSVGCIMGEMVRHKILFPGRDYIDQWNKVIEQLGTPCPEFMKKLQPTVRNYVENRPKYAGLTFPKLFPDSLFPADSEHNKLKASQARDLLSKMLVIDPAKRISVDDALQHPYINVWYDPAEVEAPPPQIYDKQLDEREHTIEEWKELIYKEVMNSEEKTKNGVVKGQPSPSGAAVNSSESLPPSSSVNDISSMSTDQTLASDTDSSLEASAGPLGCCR

Nc1ccc(F)c(C(=O)c2c[nH]c3ncc(-c4cccnc4)cc23)c1F [Compound P-0763, (3-amino-2,6-difluoro-phenyl)-(5-pyridin-3-yl-1H-pyrrolo[2,3-b]pyridin-3-yl)-methanone]
not listed: EphB2 | Kdr | Yes | Abl | Stk6
≤ 10 µM: all other assays above

NC(=O)c1ccc(-c2ccnc3[nH]cc(C(=O)c4cccc(Cl)c4Cl)c23)cc1 [Compound P-0053]
≤ 10 µM: B-Raf V600E | Btk | EphB2 | Kdr | Ret | Yes | Gsk3β

S=C(NCc1ccccn1)NCc1c[nH]c2ncccc12 [Compound P-0169]
≤ 10 µM: Abl | Kdr | Stk6 | Gsk3β
